Values quoted from earlier work, collected in PubChem BioAssay AID1259409 (Chemical Carcinogenesis Research Information System (CCRIS), 2018).

Tested on: rodent chemically induced tumor inhibition, incidence and multiplicity
Assay: CCRIS tumor inhibitor studies
Settings: Dose [Inhibitor]: 0, Route [Inhibitor]: ORAL, Promoter: NONE USED

For `Cc1c(-c2cnccn2)ssc1=S`, the “tumour outcome (control, treated, inhibition, significance)” value (Carcinogen: 2-AMINO-1-METHYL-6-PHENYLIMIDAZO[4,5-B]PYRIDINE, 105650-23-5, 200 PPM IN DIET FOR 52 WK (STUDY DURATION: 52 WK), Species: RAT, Strain/Sex: F344/MALE, Target Tissue: Type of Lesion: LYMPHATIC SYSTEM: LYMPHOMA, Dose [Carcinogen]: 400 PPM IN DIET FOR 10 WK THEN 200 PPM TO WK 14 FOLLOWED BY 100 PPM FOR DURATION OF STUDY) is given as 75%, 6%, 92%, not calculated, the “tumour outcome (control, treated, inhibition, significance)” value (Carcinogen: 2-AMINO-1-METHYL-6-PHENYLIMIDAZO[4,5-B]PYRIDINE, 105650-23-5, 400 PPM IN DIET FOR 52 WK (STUDY DURATION: 52 WK), Species: RAT, Strain/Sex: F344/MALE, Target Tissue: Type of Lesion: LYMPHATIC SYSTEM: LYMPHOMA, Dose [Carcinogen]: 400 PPM IN DIET FOR 10 WK THEN 200 PPM TO WK 14 FOLLOWED BY 100 PPM FOR DURATION OF STUDY) is given as 75%, 0%, 100%, not calculated and the “tumour outcome (control, treated, inhibition, significance)” value (Carcinogen: 4-(METHYLNITROSAMINO)-1-(3-PYRIDYL)-1-BUTANONE, 64091-91-4, 0.25 G/KG DIET (EFFECTIVE DOSE 3.31 UMOL/D) BEGINNING 2 WK PRIOR TO CARCINOGEN TREATMENT AND CONTINUING FOR DURATION, Species: MOUSE, Strain/Sex: STRAIN-A/FEMALE, Target Tissue: Type of Lesion: LUNG: TUMORS, Dose [Carcinogen]: 9.0-9.2 MG/MOUSE (TOTAL DOSE) IN DRINKING WATER ADMINISTERED OVER 7 WK) is given as 28/28 (100%), 25/25 (100%), 0%, not significant. The “tumour outcome (control, treated, inhibition, significance)” value (Carcinogen: AZOXYMETHANE, 25843-45-2, 200 PPM IN DIET 7 WK PRIOR TO CARCINOGEN TREATMENT AND CONTINUING FOR STUDY DURATION (STUDY DURATION: 59 WK), Species: RAT, Strain/Sex: F344/MALE, Target Tissue: Type of Lesion: COLON: ADENOCARCINOMA, Dose [Carcinogen]: 15 MG/KG 1/WK FOR 2 WK) was 72%, 47%, 35%, p<0.05, the “tumour outcome (control, treated, inhibition, significance)” value (Carcinogen: AZOXYMETHANE, 25843-45-2, 200 PPM IN DIET 7 WK PRIOR TO CARCINOGEN TREATMENT AND CONTINUING FOR STUDY DURATION (STUDY DURATION: 59 WK), Species: RAT, Strain/Sex: F344/MALE, Target Tissue: Type of Lesion: COLON: ADENOMA, Dose [Carcinogen]: 15 MG/KG 1/WK FOR 2 WK) was 14%, 6%, 57%, p<0.05 and the “tumour outcome (control, treated, inhibition, significance)” value (Carcinogen: AZOXYMETHANE, 25843-45-2, 200 PPM IN DIET 7 WK PRIOR TO CARCINOGEN TREATMENT AND CONTINUING FOR STUDY DURATION (STUDY DURATION: 59 WK), Species: RAT, Strain/Sex: F344/MALE, Target Tissue: Type of Lesion: SMALL INTESTINE: ADENOCARCINOMA, Dose [Carcinogen]: 15 MG/KG 1/WK FOR 2 WK) was 50%, 16%, 68%, p<0.001. For the same compound, the “tumour outcome (control, treated, inhibition, significance)” value (Carcinogen: AZOXYMETHANE, 25843-45-2, 200 PPM IN DIET BEGINNING 2 WK PRIOR TO CARCINOGEN TREATMENT AND CONTINUING FOR 3 D POST LAST CARCINOGEN DOSE FOLLOWE, Species: RAT, Strain/Sex: F344/MALE, Target Tissue: Type of Lesion: COLON: INVASIVE ADENOCARCINOMA, Dose [Carcinogen]: 15 MG/KG 1/WK FOR 2 WK) was 33%, 3%, 91%, p<0.001, the “tumour outcome (control, treated, inhibition, significance)” value (Carcinogen: AZOXYMETHANE, 25843-45-2, 200 PPM IN DIET BEGINNING 2 WK PRIOR TO CARCINOGEN TREATMENT AND CONTINUING FOR 3 D POST LAST CARCINOGEN DOSE FOLLOWE, Species: RAT, Strain/Sex: F344/MALE, Target Tissue: Type of Lesion: COLON: NONINVASIVE ADENOCARCINOMA, Dose [Carcinogen]: 15 MG/KG 1/WK FOR 2 WK) was 53%, 43%, 19%, not significant and the “tumour outcome (control, treated, inhibition, significance)” value (Carcinogen: AZOXYMETHANE, 25843-45-2, 200 PPM IN DIET BEGINNING 2 WK PRIOR TO CARCINOGEN TREATMENT AND CONTINUING FOR 3 D POST LAST CARCINOGEN DOSE FOLLOWE, Species: RAT, Strain/Sex: F344/MALE, Target Tissue: Type of Lesion: SMALL INTESTINE: INVASIVE ADENOCARCINOMA, Dose [Carcinogen]: 15 MG/KG 1/WK FOR 2 WK) was 22%, 7%, 68%, p<0.05. The “tumour outcome (control, treated, inhibition, significance)” value (Carcinogen: AZOXYMETHANE, 25843-45-2, 200 PPM IN DIET BEGINNING 2 WK PRIOR TO CARCINOGEN TREATMENT AND CONTINUING FOR 3 D POST LAST CARCINOGEN DOSE FOLLOWE, Species: RAT, Strain/Sex: F344/MALE, Target Tissue: Type of Lesion: SMALL INTESTINE: NONINVASIVE ADENOCARCINOMA, Dose [Carcinogen]: 15 MG/KG 1/WK FOR 2 WK) was 6%, 3%, 50%, not significant, the “tumour outcome (control, treated, inhibition, significance)” value (Carcinogen: AZOXYMETHANE, 25843-45-2, 200 PPM IN DIET BEGINNING 3 D POST LAST CARCINOGEN DOSE AND CONTINUING FOR DURATION OF STUDY (STUDY DURATION: 56 WK), Species: RAT, Strain/Sex: F344/MALE, Target Tissue: Type of Lesion: COLON: INVASIVE ADENOCARCINOMA, Dose [Carcinogen]: 15 MG/KG 1/WK FOR 2 WK) was 33%, 0%, 100%, p<0.001 and the “tumour outcome (control, treated, inhibition, significance)” value (Carcinogen: AZOXYMETHANE, 25843-45-2, 200 PPM IN DIET BEGINNING 3 D POST LAST CARCINOGEN DOSE AND CONTINUING FOR DURATION OF STUDY (STUDY DURATION: 56 WK), Species: RAT, Strain/Sex: F344/MALE, Target Tissue: Type of Lesion: COLON: NONINVASIVE ADENOCARCINOMA, Dose [Carcinogen]: 15 MG/KG 1/WK FOR 2 WK) was 53%, 73%, -38%, not significant. The “tumour outcome (control, treated, inhibition, significance)” value (Carcinogen: AZOXYMETHANE, 25843-45-2, 200 PPM IN DIET BEGINNING 3 D POST LAST CARCINOGEN DOSE AND CONTINUING FOR DURATION OF STUDY (STUDY DURATION: 56 WK), Species: RAT, Strain/Sex: F344/MALE, Target Tissue: Type of Lesion: SMALL INTESTINE: INVASIVE ADENOCARCINOMA, Dose [Carcinogen]: 15 MG/KG 1/WK FOR 2 WK) was 22%, 20%, 9%, not significant, the “tumour outcome (control, treated, inhibition, significance)” value (Carcinogen: AZOXYMETHANE, 25843-45-2, 200 PPM IN DIET BEGINNING 3 D POST LAST CARCINOGEN DOSE AND CONTINUING FOR DURATION OF STUDY (STUDY DURATION: 56 WK), Species: RAT, Strain/Sex: F344/MALE, Target Tissue: Type of Lesion: SMALL INTESTINE: NONINVASIVE ADENOCARCINOMA, Dose [Carcinogen]: 15 MG/KG 1/WK FOR 2 WK) was 6%, 3%, 50%, not significant and the “tumour outcome (control, treated, inhibition, significance)” value (Carcinogen: AZOXYMETHANE, 25843-45-2, 200 PPM IN DIET FOR 56 WK BEGINNING 2 WK PRIOR TO CARCINOGEN TREATMENT (STUDY DURATION: 56 WK), Species: RAT, Strain/Sex: F344/MALE, Target Tissue: Type of Lesion: COLON (DISTAL): TUMOR, Dose [Carcinogen]: 15 MG/KG 1/WK FOR 2 WK) was 47%, 28%, 40%, not significant. The “tumour outcome (control, treated, inhibition, significance)” value (Carcinogen: AZOXYMETHANE, 25843-45-2, 200 PPM IN DIET FOR 56 WK BEGINNING 2 WK PRIOR TO CARCINOGEN TREATMENT (STUDY DURATION: 56 WK), Species: RAT, Strain/Sex: F344/MALE, Target Tissue: Type of Lesion: COLON (PROXIMAL): TUMOR, Dose [Carcinogen]: 15 MG/KG 1/WK FOR 2 WK) was 39%, 30%, 23%, not significant.
